Data taken from US20180355326A1, “CYTOCHROME P450 AND CYTOCHROME P450 REDUCTASE POLYPEPTIDES, ENCODING NUCLEIC ACID MOLECULES AND USES THEREOF” (UNIVERSITY OF BRITISH COLUMBIA, priority 2012, published 2018).
One block for each molecule: values may come before it.

Key:
[1] = system: SaCYP76F38v1 (SaCYP76-G5); assay: Oxidation of various mono- and sesquiterpene substrates by yeast microsomes containing SaCYP76F38v1; format: biochemical, Santalum album; details: 60 to 80 μM of the terpene substrate, 30° C., 1 hour, GC-MS, compared to vector control
Protocol: The reaction mixtures contained 50 mM potassium phosphate, 0.8 mM NADPH and 60 to 80 μM of the terpene substrate in a total volume of 350 μL. Enzyme reactions were started by adding 50 μL of the microsome preparation, incubated at 30° C. for 1 hour with shaking and stopped by extraction with 500 μL of hexane/ethyl acetate (85:15). The organic layer was concentrated under a gentle stream of N2 gas to about 100 μL and analyzed by GC-MS analysis as described in Example 6. […] The reaction products were identified based on matches of the MS fragmentation patterns with entries in the NIST and Wiley libraries (Wiley Registry® 9th Edition/NIST 2011; Fred W. McLafferty, John Wiley & Sons, Inc.).

[2] = target: T1, SaCYP76F39v1 (SaCYP76-G10) (Santalum album, UniProt V5RH69); assay: Oxidation of various mono- and sesquiterpene substrates in vitro by SaCYP76F39v1; details: product formation the same as that catalyzed by CYP76-G5
Protocol: The reaction mixtures contained 50 mM potassium phosphate, 0.8 mM NADPH and 60 to 80 μM of the terpene substrate in a total volume of 350 μL. Enzyme reactions were started by adding 50 μL of the microsome preparation, incubated at 30° C. for 1 hour with shaking and stopped by extraction with 500 μL of hexane/ethyl acetate (85:15). […] The reaction products were identified based on matches of the MS fragmentation patterns with entries in the NIST and Wiley libraries (Wiley Registry® 9th Edition/NIST 2011; Fred W. McLafferty, John Wiley & Sons, Inc.).

[3] = target: T1, SaCYP76F39v1 (SaCYP76-G10); assay: In vitro assay 2, microsomes containing SaCYP76F39v1 with a mixture of santalenes and bergamotene; format: biochemical; details: substrate mixture of santalenes and bergamotene; no product in the absence of NADPH or with empty vector microsomes
Protocol: (§1) Assays were performed in 400 μL reaction volumes containing 50 mM potassium phosphate pH 7.5, 0.8 mM NADPH and 40 μM of substrate. Enzyme reactions were initiated by adding 50 μL of the microsomes preparation (prepared in Example 8), incubated at 30° C. for 2 hours with shaking and stopped by adding 500 μL hexane.
Microsomes containing SaCYP76F39v1 (SaCYP76-G10) were assayed for their activity using the assay described in Section B. above.

[4] = target: T1, SaCYP76F39v1 (SaCYP76-G10); assay: Substrate specificity, yeast microsomes containing SaCYP76F39v1 with various sesquiterpenes; format: biochemical; details: 40 μM of substrate, 30° C., 2 hours; for activity at 40 µM: rate of product formation relative to product formation by SaCYP76F39v1 with β-santalene
Protocol: as §1
(§2) To test the range of substrates used by the clade I and clade II SaCYP76F enzymes, yeast microsomes containing SaCYP76F37v1 (SaCYP76-G11) and SaCYP76F39v1 (SaCYP76-G10) were assayed for their ability to convert various sesquiterpenes, including the substrates α-santalene and β-santalene and 7 additional sesquiterpenes which resemble santalenes in the acyclic isoprenyl side chain, including α-curcumene, zingiberine, β-bisabolene, β-sesquiphellandrene, α-bisabolol, trans-β-farnesene and trans-nerolidol. Each substrate was tested using the in vitro assay described in Example 11.B.1.b above.
(§3) The results are shown in Table 15 below, which sets forth the substrates, including their structures, and the relative activities which represent the rate of product formation relative to product formation by SaCYP76F39v1 (SaCYP76-G10) with β-santalene.

[5] = target: T2, SaCYP76F37v1 (SaCYP76-G11) (Santalum album, UniProt V5RGC8); assay: Substrate specificity, yeast microsomes containing SaCYP76F37v1 with various sesquiterpenes; format: biochemical; details: 40 μM of substrate, 30° C., 2 hours; for activity at 40 µM: rate of product formation relative to product formation by SaCYP76F39v1 with β-santalene
Protocol: as §1, §2, §3

[6] = target: T1, SaCYP76F39v1 (SaCYP76-G10); assay: Oxidation of individual sesquiterpenes by microsomes containing SaCYP76F39v1; format: biochemical; details: partially purified substrate fraction, GC-MS
Protocol: as §1
(§4) Microsome preparations containing candidate P450 were assayed for their capacity to oxidize individual sesquiterpenes. The sesquiterpenes were isolated as described in Example 9 above. Three fractions containing mainly α-santalene, α-trans-bergamotene, or epi-β-santalene and β-santalene were used as individual substrates in assays containing clade I P450 SaCYP76F39v1 (SaCYP76-G10) or clade II P450 SaCYP76F37v1 (SaCYP76-G11). The assays were performed as described in Section B.1.b. above and products were identified by comparison to authentic standards (see Table 12 and FIG. 20G).

[7] = target: T2, SaCYP76F37v1 (SaCYP76-G11); assay: Oxidation of individual sesquiterpenes by microsomes containing SaCYP76F37v1; format: biochemical; details: partially purified substrate fraction, GC-MS
Protocol: as §1, §4

[8] = system: SaCYP76F38v1 (SaCYP76-G5); assay: Coupled enzyme assay with SaSSy and FPP, microsomes containing SaCYP76F38v1; format: biochemical, Santalum album; details: in vitro reaction products of SaSSy and 70 μM FPP, 0.8 mM NADPH, 30° C., 1 hour
Protocol: Coupled enzyme assays with S. album santalene synthase (SaSSy) expressed in bacteria (Jones et al. (2011) J Biol Chem 286:17445-17454) were initiated with 50 μg of His6-tag purified SaSSy and 70 μM farnesyl pyrophosphate (FPP) in TPS buffer (25 mM HEPES pH 7.5, 5 mM MgCl2, 1 mM DTT) in a volume of 450 μL. The assays were incubated for 30 min at 30° C. followed by the addition of 50 μL of the microsome preparation containing a S. album cytochrome P450 and a cytochrome P450 reductase and 0.8 mM NADPH. The reaction was incubated for an additional 1 hour at 30° C. and was stopped by extraction with 500 μL hexane/ethyl acetate (85:15).

[9] = substrate: C=C1[C@@H]2CC[C@@H](C2)[C@@]1(C)CCC=C(C)C; assay: Kinetic assay with α-santalene or β-santalene as the substrate, SaCYP76F39v1; format: biochemical, Santalum album; details: other: apparent Km, 17 pmol P450, substrate 12 to 138 μM, 0.8 mM NADPH, pH 7.5, 30° C., 20 minutes
Protocol: (§5) To test the kinetics of the clade I and clade II SaCYP76F enzymes, kinetic assays were performed with SaCYP76F37v1 (SaCYP76-G11) and SaCYP76F39v1 (SaCYP76-G10) with α-santalene or β-santalene as the substrate. Assays were performed in 400 μL reaction volumes containing 50 mM potassium phosphate pH 7.5, 0.8 mM NADPH and substrate concentrations of 12 to 138 μM of α-santalene or β-santalene. Enzyme reactions were initiated by adding either 17 pmol of SaCYP7639v1 or 35 pmol of SaCYP7637v1, incubated at 30° C. for 20 minutes with shaking and stopped by adding 500 μL hexane. […] Kinetic data were evaluated using tools described in Hernandez and Ruiz ((1998) Bioinformatics. 14:227-228).
(§6) The apparent Km values, kcat values and kcat/Km values for SaCYP76F39v1 (SaCYP76-G10) and SaCYP76F37v1 (SaCYP76-G11) with α-santalene and β-santalene are set forth in Table 14 below.

[10] = substrate: CC(C)=CCC[C@]1(C)C2C[C@@H]3[C@H](C2)C31C; assay: as above; format: biochemical, Santalum album; details: other: apparent Km, 17 pmol P450, substrate 12 to 138 μM, 0.8 mM NADPH, pH 7.5, 30° C., 20 minutes
Protocol: as §5, §6

[11] = substrate: C=C1[C@@H]2CC[C@@H](C2)[C@@]1(C)CCC=C(C)C; assay: Kinetic assay with α-santalene or β-santalene as the substrate, SaCYP76F37v1; format: biochemical, Santalum album; details: other: apparent Km, 35 pmol P450, substrate 12 to 138 μM, 0.8 mM NADPH, pH 7.5, 30° C., 20 minutes
Protocol: as §5, §6

[12] = substrate: CC(C)=CCC[C@]1(C)C2C[C@@H]3[C@H](C2)C31C; assay: as above; format: biochemical, Santalum album; details: other: apparent Km, 35 pmol P450, substrate 12 to 138 μM, 0.8 mM NADPH, pH 7.5, 30° C., 20 minutes
Protocol: as §5, §6

Molecule: C=CC(C)(O)CCC=C(C)C (stereo not shown) [linalool]
- Products of reaction with SaCYP76F38v1 [1]: two products
- Hydroxylation by CYP76-G10 in vitro [2]: catalyzed the hydroxylation

Molecule: C=CC(C)(O)CCC=C(C)CCC=C(C)C (stereo not shown) [nerolidol]
- Products of reaction with SaCYP76F38v1 [1]: two products

Molecule: C=CC(=C)CC/C=C(\C)CCC=C(C)C [trans-farnesene]
- Use as a substrate by SaCYP76F39v1 (in words) [4]: did not use
- activity at 40 µM [4]: 0%
- activity at 40 µM [5]: 0%

Molecule: C=CC(C)(O)CC/C=C(\C)CCC=C(C)C (stereo not drawn) [trans-nerolidol]
- Use as a substrate by SaCYP76F39v1 (in words) [4]: did not use
- activity at 40 µM [4]: 0%
- Use as a substrate by SaCYP76F37v1 (in words) [5]: selectively active
- activity at 40 µM [5]: 11.3%

Molecule: CC(C)=CCC[C@]1(C)C2C[C@@H]3[C@H](C2)C31C [α-santalene]
- activity at 40 µM [4]: 99.8%
- activity at 40 µM [5]: 17.3%
- Products formed with SaCYP76F39v1 [6]: (Z)- and (E)-α-santalol
- Products formed with SaCYP76F37v1 [7]: only (E)-α-santalol
- Hydroxylation by SaCYP76F39v1 [3]: catalyzed the hydroxylation

B1: SaCYP76F39v1 (SaCYP76-G10) (Santalum album) (protein)
chain: MDFLSCILFVLFAWALVRALPTLSRGSKAASGRLPPGPVPWPVVGNLLKLGNKPHKSLAELAKSYGPIMCLKLGHMTTIVISTPTVAKEVLQKQDVAFSNRTTPDAVRAHGHDLYSMAWLPVSTRWRTLRKISNSHIFTSQRLDENHHLRRRKLDELLARVAESSLVGAVVDMGAVAFLTSLNLLSNTVFSKDLVEPGLGAVQETKEVVWGMMEEAGRPNLVDYFPVLRRLDPQGIRRRMTGYFGKMLEVFGDIIDERLEWRKQQSDGDSPAGTTNDVLDVLLNIIEDAEIEEKPNRTDVEHFLLDLFAAGSDTTSSTVEWAMTELLRKPETLERARSELHETIGPENLVQEADLPRLPYLQAVVKETFRLHPPVPLLLPRTAEKDAELCGFTVPAGAQIMVNAWAIGRDPGTWEDPESFLPERFLGSDVDVKGRSFELIPFGGGRRICPGLPLAIRMVHLMLGSLIHGFRWKVDDDGMGSPETAMDMDEKFGITLQKAKPLCAVPIRG
- Km [9]: 34.82 ± 0.41 µM
- kcat [9]: 1.17 s⁻¹
- kcat/Km [9]: 33000 M⁻¹ s⁻¹
- Km [10]: 25.92 ± 0.11 µM
- kcat [10]: 1.12 s⁻¹
- kcat/Km [10]: 43000 M⁻¹ s⁻¹

B2: SaCYP76F37v1 (SaCYP76-G11) (Santalum album) (protein)
chain: MDFLSCILSVLFAWALVRALPTLSRGSKAAGGRLPPGPVPLPVVGNLLKLGSKPHKSLAELAKSYGPIMCLKLGHIITIVISTPTVAKEVLQKQDVAFCNRTIPDAVRAHRHDLHSMVWLPVSTRWRTLRKISNSHIFSSQRLDENHHLRRRKLDELLTRVAESSLVGAVVDIGAVAFLTSLNLLSNTVFSKDLVEPGLGAVQEMEEVVWGITEEAGRPNLVDYFPVLRRLDPQGTRRRMMGYFGKMFEVFGDIIDERLEWRKQQSDGDSPAGTTNDVLDVLLNIIEDAEIEEKPNRTDVEHFLLDLFAAGSDTTSSTVEWAMTELLRKPETLERARSELHETIGPENLVQEADLPRLPYLQAVVKETFRLHPPVPLLLPRTAEKDAELCGFTVPAGAQIMVNAWAIGRDPGTWEDPESFLPERFLGSDVDVKGRSFELIPFGGGRRICPGLPLAIRMVHLMLGSLIHGFRWKVDDDGMGSPETAMDMDEKFGITLQKAKPLCAVPIRG
- Km [11]: 157 ± 0.17 µM
- kcat [11]: 0.13 s⁻¹
- kcat/Km [11]: 810 M⁻¹ s⁻¹
- Km [12]: 133 ± 0.41 µM
- kcat [12]: 0.2 s⁻¹
- kcat/Km [12]: 1500 M⁻¹ s⁻¹

Now from value to molecule, other results behind:

- Hydroxylation by CYP76-G10 in vitro [2]: catalyzed the hydroxylation
Molecule: CC(C)=CCC[C@](C)(O)C1CC=C(C)CC1 (stereo partly shown) [bisabolol]
- Products of reaction with SaCYP76F38v1 [1]: one product

- Hydroxylation by SaCYP76F39v1 [3]: catalyzed the hydroxylation
Molecule: C=C1C2CCC(C2)[C@@]1(C)CCC=C(C)C (stereo partly drawn) [epi-β-santalene]

- Use as a substrate by SaCYP76F39v1 (in words) [4]: did not use
- activity at 40 µM [4]: 0%
- activity at 40 µM [5]: 0%
Molecule: CC(C)=CCCC(C)C1C=CC(C)=CC1 (stereo not shown) [zingiberene]

- Use as a substrate by SaCYP76F39v1 (in words) [4]: low activity
- activity at 40 µM [4]: 9.4%
- activity at 40 µM [5]: 0%
Molecule: CC(C)=CCCC(C)(O)C1CC=C(C)CC1 (stereo not drawn) [α-bisabolol]

- Use as a substrate by SaCYP76F39v1 (in words) [4]: did not use
- activity at 40 µM [4]: 0%
- activity at 40 µM [5]: 0%
Molecule: CC(C)=CCCC(C)c1ccc(C)cc1 (stereo not drawn) [α-curcumene]

- Products formed with SaCYP76F39v1 [6]: (Z)- and (E)-α-trans-bergamotol
- Products formed with SaCYP76F37v1 [7]: only (E)-α-trans-bergamotol
- Hydroxylation by SaCYP76F39v1 [3]: catalyzed the hydroxylation
- Hydroxylation/oxidation by SaCYP76F38v1 [8]: catalyzed the hydroxylation
Molecule: CC(C)=CCCC1(C)C2CC=C(C)C1C2 (stereo not drawn) [α-trans-bergamotene]

- Use as a substrate by SaCYP76F39v1 (in words) [4]: did not use
- activity at 40 µM [4]: 0%
- activity at 40 µM [5]: 0%
Molecule: C=C(CCC=C(C)C)C1CC=C(C)CC1 (stereo not drawn) [β-bisabolene]

- activity at 40 µM [4]: 100%
- activity at 40 µM [5]: 17.7%
- Hydroxylation by SaCYP76F39v1 [3]: catalyzed the hydroxylation
Molecule: C=C1[C@@H]2CC[C@@H](C2)[C@@]1(C)CCC=C(C)C [β-santalene]

- Use as a substrate by SaCYP76F39v1 (in words) [4]: did not use
- activity at 40 µM [4]: 0%
- activity at 40 µM [5]: 0%
Molecule: C=C1C=CC(C(C)CCC=C(C)C)CC1 (stereo not drawn) [β-sesquiphellandrene]
